In US20240309005A1 (priority 2021, published 2024):
Converted amounts (≈) assume the structure as drawn. Structures can show the parent of a compound that is named as a salt.

Legend:
[1] = in vivo; details: male, CD1, mouse; for Cmax / bioavailability: po, 30 mg/kg
[2] = physchem; details: 25 °C, kinetic from dmso stock
[3] = in vivo; details: male, SD, rat; for bioavailability / Cmax: po, 30 mg/kg; for Cmax: Cmax (ng/ml)
[4] = test system: hERG / SGK1 (whole cell)

Compound: Cc1n[nH]c2nc(-c3ccc(NS(=O)(=O)c4cc(Cl)ccc4F)cc3)nc(NCCN(C)CCOC(=O)CC(C)C)c12 [Compound 83, 2-{[2-({6-[4-(5-chloro-2-fluorobenzenesulfonamido)phenyl]-3-methyl-1H-pyrazolo[3,4-d]pyrimidin-4-yl}amino)ethyl](methyl)amino}ethyl 3-methylbutanoate]
- half-life [1]: 144 min
- Cmax [1]: 788 ng/mL
- bioavailability [1]: 4.9%

Compound: Cc1n[nH]c2nc(-c3ccc(NS(=O)(=O)c4cc(C(F)(F)F)ccn4)cc3)nc(NCCN(C)C)c12 [Compound 30, N-(4-(4-((2-(dimethylamino)ethyl)amino)-3-methyl-1H-pyrazolo[3,4-d]pyrimidin-6-yl)phenyl)-4-(trifluoromethyl)pyridine-2-sulfonamide]
- half-life [1]: 264 min
- Cmax [1]: 548 ng/mL
- bioavailability [1]: 18.8%
- solubility at 2 h ([2]; pH 5, fessif): 276 µM (≈ 144 µg/mL)
- solubility at 2 h ([2]; pH 7.4, aqueous buffer): 295 µM (≈ 154 µg/mL)

Compound: Cc1n[nH]c2nc(-c3ccc(NS(=O)(=O)c4cc(Cl)ccc4F)cc3)nc(NCCN(C)C=O)c12 [Compound 18, N-[2-([6-[4-(5-chloro-2-fluorobenzenesulfonamide)phenyl]-3-methyl-1H-pyrazolo[3,4-d]pyrimidin-4-yl]amino)ethyl]-N-methylformamide]
- Cmax [1]: 2.3 ng/mL
- bioavailability [1]: 0.5%
- solubility at 2 h ([2]; pH 5, fessif): 268 µM (≈ 139 µg/mL)
- solubility at 2 h ([2]; pH 7.4, aqueous buffer): 52 µM (≈ 26.9 µg/mL)

Compound: CC(=O)OCCN(C)CCNc1nc(-c2ccc(NS(=O)(=O)c3cc(Cl)ccc3F)cc2)nc2[nH]nc(C)c12 [Compound 87, 2-[[2-([6-[4-(5-chloro-2-fluorobenzenesulfonamido)phenyl]-3-methyl-1H-pyrazolo[3,4-d]pyrimidin-4-yl]amino)ethyl](methyl)amino]ethyl acetate]
- half-life [1]: 120 min
- Cmax [1]: 1020 ng/mL
- bioavailability [1]: 7.5%
- solubility at 2 h ([2]; pH 5, fessif): 290 µM
- solubility at 2 h ([2]; pH 7.4, aqueous buffer): 0.6 µM

Compound: COc1cc(-c2nc(NCCN(C)C)c3c(C)n[nH]c3n2)ccc1NS(=O)(=O)c1cc(F)ccc1F [Compound 96, N-[4-(4-{[2-(dimethylamino)ethyl]amino}-3-methyl-1H-pyrazolo[3,4-d]pyrimidin-6-yl)-2-methoxyphenyl]-2,5-difluorobenzenesulfonamide]
- half-life [3]: 198 min
- bioavailability [3]: 24%
- Cmax [3]: 267 ng/mL

Compound: Cc1n[nH]c2nc(-c3ccc(NS(=O)(=O)c4cc(Cl)ccc4F)cc3)nc(NCCN(C)CCOC(=O)C(C)(C)C)c12 [Compound 82, 2-{[2-({6-[4-(5-chloro-2-fluorobenzenesulfonamido)phenyl]-3-methyl-1H-pyrazolo[3,4-d]pyrimidin-4-yl}amino)ethyl](methyl)amino}ethyl 2,2-dimethylpropanoate]
- half-life [1]: 102 min
- Cmax [1]: 607 ng/mL
- bioavailability [1]: 4.5%

Compound: COc1ccc(F)c(S(=O)(=O)Nc2ccc(-c3nc(NCCN(C)CCO)c4c(C)n[nH]c4n3)cc2)c1 [Compound 77, 2-fluoro-N-{4-[4-({2-[(2-hydroxyethyl)(methyl)amino]ethyl}amino)-3-methyl-1H-pyrazolo[3,4-d]pyrimidin-6-yl]phenyl}-5-methoxybenzenesulfonamide]
- half-life [1]: 132 min
- Cmax [1]: 16.8 ng/mL
- bioavailability [1]: 0.75%

Compound: Cc1n[nH]c2nc(-c3ccc(NS(=O)(=O)c4ccncc4F)cc3)nc(NCCN(C)C)c12 [Compound 15, N-[4-(4-[[2-(dimethylamino)ethyl]amino]-3-methyl-1H-pyrazolo[3,4-d]pyrimidin-6-yl)phenyl]-3-fluoropyridine-4-sulfonamide]
- hERG/IC50 [4]: 4.7
- solubility at 2 h ([2]; pH 5, fessif): 289 µM (≈ 136 µg/mL)
- solubility at 2 h ([2]; pH 7.4, aqueous buffer): 282 µM (≈ 133 µg/mL)

Compound: Cc1n[nH]c2nc(-c3ccc(NS(=O)(=O)c4cc(Cl)ccc4F)cc3)nc(NCCN(C)CCOC(=O)C(C)C)c12 [Compound 89, 2-{[2-({6-[4-(5-chloro-2-fluorobenzenesulfonamido)phenyl]-3-methyl-1H-pyrazolo[3,4-d]pyrimidin-4-yl}amino)ethyl](methyl)amino}ethyl 2-methylpropanoate trifluoroacetic acid]
- half-life [1]: 72 min
- Cmax [1]: 1740 ng/mL
- bioavailability [1]: 11%

Compound: Cc1n[nH]c2nc(-c3ccc(NS(=O)(=O)c4cc(Cl)ccc4F)c(Cl)c3)nc(OC3CCN(C)CC3)c12 [Compound 101, 5-chloro-N-(2-chloro-4-{3-methyl-4-[(1-methylpiperidin-4-yl)oxy]-1H-pyrazolo[3,4-d]pyrimidin-6-yl}phenyl)-2-fluorobenzenesulfonamide]
- half-life [3]: 228 min
- bioavailability [3]: 75%
- Cmax [3]: 8120 ng/mL

Compound: Cc1n[nH]c2nc(-c3ccc(NS(=O)(=O)c4cc(F)ccc4F)c(F)c3)nc(O[C@@H]3CCNC[C@@H]3F)c12 [Compound 155]
- half-life [3]: 450 min
- bioavailability [3]: 5.3%
- Cmax [3]: 283 ng/mL

Compound: Cc1n[nH]c2nc(-c3ccc(NS(=O)(=O)c4cc(Cl)ccc4F)cc3)nc(NCCN(C)CCOP(=O)(O)O)c12 [Compound 88, 2-{[2-({6-[4-(5-chloro-2-fluorobenzenesulfonamido)phenyl]-3-methyl-1H-pyrazolo[3,4-d]pyrimidin-4-yl}amino)ethyl](methyl)amino}ethoxyphosphonic acid]
- half-life [1]: 258 min
- Cmax [1]: 14.5 ng/mL
- bioavailability [1]: 1.6%

Compound: Cc1n[nH]c2nc(-c3ccc(NS(=O)(=O)c4cc(Cl)ccc4F)cc3)nc(OCCN(C)CCO)c12 [Compound 86, 5-chloro-2-fluoro-N-[4-(4-{2-[(2-hydroxyethyl)(methyl)amino]ethoxy}-3-methyl-1H-pyrazolo[3,4-d]pyrimidin-6-yl)phenyl]benzenesulfonamide]
- half-life [1]: 1560 min
- Cmax [1]: 40.9 ng/mL
- bioavailability [1]: 3.1%
- half-life [3]: 294 min
- bioavailability [3]: 6.7%
- Cmax [3]: 354 ng/mL
- solubility at 2 h ([2]; pH 5, fessif): 75 µM (≈ 40.1 µg/mL)
- solubility at 2 h ([2]; pH 7.4, aqueous buffer): 0.66 µM (≈ 0.353 µg/mL)

Compound: Cc1n[nH]c2nc(-c3ccc(NS(=O)(=O)c4cc(OC(C)C)ccn4)cc3)nc(NCCN(C)C)c12 [Compound 73, N-[4-(4-{[2-(dimethylamino)ethyl]amino}-3-methyl-1H-pyrazolo[3,4-d]pyrimidin-6-yl)phenyl]-4-isopropoxypyridine-2-sulfonamide]
- half-life [1]: 90 min
- Cmax [1]: 143 ng/mL
- solubility at 2 h ([2]; pH 5, fessif): 311 µM (≈ 159 µg/mL)
- solubility at 2 h ([2]; pH 7.4, aqueous buffer): 265 µM (≈ 135 µg/mL)

Compound: Cc1n[nH]c2nc(-c3ccc(NS(=O)(=O)c4cccnc4)cc3)nc(NCCN(C)C)c12 [Compound 23, N-[4-(4-[[2-(dimethylamino)ethyl]amino]-3-methyl-1H-pyrazolo[3,4-d]pyrimidin-6-yl)phenyl]pyridine-3-sulfonamide]
- hERG/IC50 [4]: 4.1
- solubility at 2 h ([2]; pH 5, fessif): 274 µM (≈ 124 µg/mL)
- solubility at 2 h ([2]; pH 7.4, aqueous buffer): 13.7 µM (≈ 6.2 µg/mL)

Compound: Cc1n[nH]c2nc(-c3ccc(NS(=O)(=O)c4cc(F)ccc4F)c(Cl)c3)nc(O[C@@H]3CCNC[C@@H]3F)c12 [Compound 156, N-[2-chloro-4-(4-{[(3S,4R)-3-fluoropiperidin-4-yl]oxy}-3-methyl-1H-pyrazolo[3,4-d]pyrimidin-6-yl)phenyl]-2,5-difluorobenzenesulfonamide hydrochloride]
- half-life [3]: 312 min
- bioavailability [3]: 12%
- Cmax [3]: 548 ng/mL

Compound: Cc1n[nH]c2nc(-c3ccc(NS(=O)(=O)c4cc(OC(C)C)ccn4)c(Cl)c3)nc(NCCN(C)C)c12 [Compound 100, N-[2-chloro-4-(4-{[2-(dimethylamino)ethyl]amino}-3-methyl-1H-pyrazolo[3,4-d]pyrimidin-6-yl)phenyl]-4-isopropoxypyridine-2-sulfonamide]
- half-life [3]: 228 min
- bioavailability [3]: 39.5%
- Cmax [3]: 2480 ng/mL

Compound: CCCC(=O)OCCN(C)CCNc1nc(-c2ccc(NS(=O)(=O)c3cc(Cl)ccc3F)cc2)nc2[nH]nc(C)c12 [Compound 91, 2-{[2-({6-[4-(5-chloro-2-fluorobenzenesulfonamido)phenyl]-3-methyl-1H-pyrazolo[3,4-d]pyrimidin-4-yl}amino)ethyl](methyl)amino}ethyl butanoate trifluoroacetic acid]
- half-life [1]: 270 min
- Cmax [1]: 319 ng/mL
- bioavailability [1]: 2.2%

Compound: CCC(=O)OCCN(C)CCNc1nc(-c2ccc(NS(=O)(=O)c3cc(Cl)ccc3F)cc2)nc2[nH]nc(C)c12 [Compound 90, 2-{[2-({6-[4-(5-chloro-2-fluorobenzenesulfonamido)phenyl]-3-methyl-1H-pyrazolo[3,4-d]pyrimidin-4-yl}amino)ethyl](methyl)amino}ethyl propanoate; bis(trifluoroacetic acid)]
- half-life [1]: 144 min
- Cmax [1]: 523 ng/mL
- bioavailability [1]: 5.5%

Compound: Cc1n[nH]c2nc(-c3ccc(NS(=O)(=O)c4cc(Cl)ccc4F)cc3)nc(O[C@@H]3CCN(CCO)C[C@@H]3F)c12 [Compound 50, 5-chloro-2-fluoro-N-[4-(4-{[(3S,4R)-3-fluoro-1-(2-hydroxyethyl)piperidin-4-yl]oxy}-3-methyl-1H-pyrazolo[3,4-d]pyrimidin-6-yl)phenyl]benzenesulfonamide]
- half-life [1]: 192 min
- Cmax [1]: 54.9 ng/mL

Compound: Cc1n[nH]c2nc(-c3ccc(NS(=O)(=O)c4cc(Cl)ccc4F)c(F)c3)nc(OC3CCN(C)CC3)c12 [Compound 79, 5-chloro-2-fluoro-N-(2-fluoro-4-{3-methyl-4-[(1-methylpiperidin-4-yl)oxy]-1H-pyrazolo[3,4-d]pyrimidin-6-yl}phenyl)benzenesulfonamide]
- half-life [1]: 180 min
- Cmax [1]: 3720 ng/mL
- bioavailability [1]: 128%
- half-life [3]: 304 min
- bioavailability [3]: 40.5%
- Cmax [3]: 3400 ng/mL
- solubility at 2 h ([2]; pH 5, fessif): 321 µM (≈ 176 µg/mL)
- solubility at 2 h ([2]; pH 7.4, aqueous buffer): 2.6 µM (≈ 1.43 µg/mL)

Compound: Cc1n[nH]c2nc(-c3ccc(NS(=O)(=O)c4cc(Cl)ccc4F)c(F)c3)nc(NCCN(C)C)c12 [Compound 38, 5-chloro-N-(4-(4-((2-(dimethylamino)ethyl)amino)-3-methyl-1H-pyrazolo[3,4-d]pyrimidin-6-yl)-2-fluorophenyl)-2-fluorobenzenesulfonamide]
- half-life [1]: 132 min
- Cmax [1]: 2340 ng/mL
- bioavailability [1]: 41%
- solubility at 2 h ([2]; pH 5, fessif): 298 µM (≈ 156 µg/mL)
- solubility at 2 h ([2]; pH 7.4, aqueous buffer): 15.9 µM (≈ 8.3 µg/mL)

Compound: Cc1n[nH]c2nc(-c3ccc(NS(=O)(=O)c4ccc(C#N)cc4)cc3)nc(OC3CCN(C(C)C)CC3)c12 [Compound 3, 4-cyano-N-(4-(4-((1-isopropylpiperidin-4-yl)oxy)-3-methyl-1H-pyrazolo[3,4-d]pyrimidin-6-yl)phenyl)benzenesulfonamide]
- solubility at 2 h ([2]; pH 5, fessif): 325 µM (≈ 173 µg/mL)
- solubility at 2 h ([2]; pH 7.4, aqueous buffer): 19 µM (≈ 10.1 µg/mL)
